Source: patent US7030114B1, “Compounds which inhibit leukocyte adhesion mediated by VLA-4” (Elan Pharmaceuticals, Inc., priority 1997, dated 2006)

System: Experimental Autoimmune (or Allergic) Encephalomyelitis (“EAE”)
Assay: In vivo evaluation: Experimental Autoimmune (or Allergic) Encephalomyelitis (EAE) model, motor impairment
Parameters: species or system rats or guinea pigs
Conditions: treatment from Day 8, bid for five days, SC, PO or IP

Cc1ccc(S(=O)(=O)N2CCC[C@@]2(C)C(=O)N[C@@H](Cc2ccc(OC(=O)N3CCN(C)CC3)cc2)C(=O)OC(C)(C)C)cc1 [Example 47, N-(toluene-4-sulfonyl)-α-methylprolyl-L-4-(4-methylpiperazin-1-carbonyloxy)phenylalanine tert-butyl ester]
activity in EAE model (delayed the onset of symptoms, e.g., clinical scores no greater than 2 or slowed body weight loss as compared to the control): active
